In paper PMC10005075, “Study on Absorption, Distribution and Excretion of a New Candidate Compound XYY-CP1106 against Alzheimer’s Disease in Rats by LC-MS/MS” (Molecules, 2023):
“Also recorded” adds a separate entry of the source. Like-named read-outs stand apart in the source and are kept apart here.

Columns and labels:
[1] = Plasma pharmacokinetic study after oral and tail vein administration; format: in vivo, Sprague-Dawley (SD) rats; set-up: clearance: unit not given here; settings: rats; for AUC(0-t): read-out: AUC0–24
Method: Non-compartmental calculations were performed using the PK Solver plug-in (China Pharmaceutical University, Nanjing, China) to estimate the main pharmacokinetic parameters. All values were expressed as the mean ± standard deviation.
Amounts of 100 μL plasma, 100 μL IS working solution (1000 ng/mL), 100 μL aqueous solution containing 0.2% formic acid and 700 μL ice methanol for protein precipitation were successively added into the 1.5 mL centrifuge tube, and it was vortexed for 30 s. Then, it was centrifuged at 13,000 rpm for 10 min at 4 °C, and the upper clarifying solution was extracted and placed in a new 1.5 mL tube and was centrifuged again under the same conditions. Five microliters of the sample were measured and injected into the LC-MS/MS system for analysis.
For oral administration, six SD rats were fed with freely available food and water and fasted with free access to water for 12 h before drug administration. The rats in each group were weighed and recorded; then, the oral dose was 15 mg/kg. The average weight of rats was 200 ± 30 g. At 0.083, 0.25, 0.5, 0.75, 1, 2, 4, 6, 8, 12 and 24 h after oral administration, 0.3 mL of blood samples were collected from the suborbital vein and put into a 1.5 mL heparin sodium tube. The collected plasma sample was centrifuged at 4 °C for 10 min at 3500 revolutions, and 100 μL of supernatant was taken and stored at −20 °C for future use.
For tail vein injection, six SD rats were weighed and recorded; then, XYY-CP1106 (0.384 mg/mL, 1.92 mg/kg) filtered by a 0.22 µm filter membrane was administered via tail vein injection. An amount of 0.3 mL of blood samples were collected from the suborbital vein into heparin sodium tubes at 0.083, 0.25, 0.5, 0.75, 1, 2, 4, 6, 8, 12 and 24 h after caudal intravenous administration. The collected plasma samples were treated in the same way as oral administration.
The oral absolute bioavailability (F) in rats was calculated according to the following equation:F = (AUCoral(0–∞) × Doseiv)/(AUCiv(0–∞) × Doseoral) × 100%,(1)

[2] = Tissue distribution study after oral administration; format: in vivo, Sprague-Dawley (SD) rats; settings: rats, oral 15 mg/kg
Method: The tissue sample was weighed and cut into pieces. Normal saline was added to brain tissue at the ration of 1:1 (g: mL) and other tissues at the ration of 1:3 (g: mL). The tissue homogenate was symmetrically placed in a tissue homogenizer to obtain tissue homogenate.
Amount of 0.5 mL of tissue homogenate and 1.5 mL of acetonitrile were added into a 5 mL centrifuge tube for protein precipitation by vortex, and 1 mL of vortex solution was added into a 1.5 mL centrifuge tube and centrifuged at 13,000 revolutions at for 10 min 4 °C. Then, 900 μL supernatant and 100 μL IS working solution were added into a 1.5 mL centrifuge tube to vortex for 30 s. It was centrifuged twice under the same conditions; then, the supernatant (5 μL) was injected into the LC-MS/MS system.
Thirty SD rats were randomly divided into 5 groups (n = 6), fed with freely available food and water and fasted with free access to water for 12 h before drug administration. All rats were weighed and recorded. The 5 groups of rats were given a single oral dose (15 mg/kg) of XYY-CP1106 (1.0 mg/mL) and sacrificed with cervical dislocation at 0.25, 1, 2, 4 and 8 h, respectively. The heart, liver, spleen, lungs, kidneys and brain of the rats were quickly removed, and the blood was carefully rinsed off with physiological saline (0.9%). The normal saline on the surface of all tissue samples was dried with filter paper then stored in a refrigerator at −80 °C.

[3] = Excretory study (urine and feces) after oral administration; format: in vivo; settings: rats
Method: After the collected feces were dried at room temperature, a pestle and mortar were used to uniformly crush the feces collected at each time slot. Then, 0.2 g of ground feces were accurately weighed into a 5.0 mL centrifuge tube, 4 mL of methanol solution was added and then it was put into the ultrasonic instrument for ultrasonic extraction for 4 h. Then, 100 μL of feces samples were added into a 1.5 mL centrifuge tube. Next, it was treated the same as the plasma samples.
Urine samples were collected and processed directly. An aliquot of 100 µL of urine sample was taken and processed in the same manner as the plasma samples.
Ten rats were fed with freely available food and water and fasted with free access to water for 12 h before drug administration. They were given a single dose of XYY-CP1106 (15 mg/kg, 1.0 mg/mL) and then put into metabolic cages. Feces and urine were collected at 0–4, 4–8, 8–12, 12–24, 24–36, 36–48, 48–60, 60–72, 72–84 and 84–96 time slots, respectively. The feces collected at each time slot were air-dried to record their weight and stored in a refrigerator at −20 °C before use. The urine volume was recorded at each time slot and stored in a refrigerator at −20 °C before use.

Solubility in water = format: physicochemical
Method: A certain amount of XYY-CP1106 was weighed and dissolved completely in methanol. β-cyclodextrin aqueous solution was added to make it 50% methanol and 30% β-cyclodextrin solution. Then, it was placed in ultrasound for 4 h under an ultrasonic bath after vortex. Next, it was freeze-dried for 2 days; then, it was redissolved in PBS solution to the final concentration of 1.0 mg/mL.

[4] = Stability in plasma, tissues, feces and urine under storage conditions; set-up: species or system rat; settings: automatic sampler 24 h; three freeze–thaw cycles −20 °C to room temperature; −20 °C for 30 days
Method: The stability of XYY-CP1106 standard in plasma, tissues, feces and urine biological samples under different storage conditions was analyzed, including the stability of samples stored at room temperature for 24 h in an automatic sampler, the freeze–thaw stability after three cycles (−20 °C to room temperature was defined as a cycle), and −20 °C for the last 30 days. When the deviation from the standard value was within 15% (low concentration was within 20%), the sample was considered stable. The concentration of standard substance in plasma was 10 and 160 ng/mL. The standard concentration in tissues, feces and urine was 10 and 800 ng/mL.

[5] = set-up: method as in PMID 31325784; settings: chelating ability for Fe^3+; cited from earlier work
MAO-B = system: MAO-B; set-up: method as in PMID 31325784; settings: cited from earlier work
[6] = system: scopolamine-induced AD mouse model; set-up: method as in PMID 31325784; settings: scopolamine-induced AD mice, intraperitoneal injection 10 mg/kg; cited from earlier work
[7] = Sprague-Dawley, rat, plasma, iv, I.V (tail vein) 1.92 mg/kg, n = 6
[8] = Sprague-Dawley, rat, plasma, po, P.O 15 mg/kg, n = 6

Question: Which Tmax ([1]; Sprague-Dawley, rat, plasma, 15 mg/kg, oral administration, read-out: time to maximum plasma concentration (converted)) does the source give for `Cc1c(O)c(=O)ccn1Cc1cc2ccc(OCc3cccc(F)c3)cc2oc1=O` [XYY-CP1106] here?
Answer: 0.75 h

Question: And the AUC(0-inf) [1, 7]?
Answer: 599 ± 31.8 ng·h/mL

Question: What about the Cmax [1, 7] of the same compound?
Answer: 691 ± 120 ng/mL

Question: And the clearance [1, 7]?
Answer: 0.0268

Question: What about the half-life [1, 7] of the same compound?
Answer: 3.5 ± 2.24 h

Question: What about the AUC(0-t) [1, 7] of the same compound?
Answer: 540 ± 43.7 ng·h/mL

Question: And the Tmax ([1]; Sprague-Dawley, rat, plasma, iv, I.V (tail vein) 1.92 mg/kg, n = 6, read-out: Tmax)?
Answer: 0.083 h

Question: And the half-life ([1]; Sprague-Dawley, rat, plasma, oral, P.O 15 mg/kg, n = 6)?
Answer: 8.26 to 10.1 h

Question: What about the Tmax ([1]; Sprague-Dawley, rat, plasma, oral, P.O 15 mg/kg, n = 6, read-out: Tmax) of the same compound?
Answer: 0.57 to 0.93 h

Question: And the bioavailability ([1]; Sprague-Dawley, rat, plasma, po, P.O 15 mg/kg vs I.V 1.92 mg/kg, from AUC0–∞, read-out: absolute oral bioavailability (F))?
Answer: 10.7 ± 1.72%

Question: And the AUC(0-inf) [1, 8]?
Answer: 503 ± 77.7 ng·h/mL

Question: And the Cmax [1, 8]?
Answer: 153 ± 15.9 ng/mL

Question: And the half-life [1, 8]?
Answer: 9.16 ± 0.9 h

Question: And the AUC(0-t) [1, 8]?
Answer: 428 ± 66.1 ng·h/mL

Question: And the V ([1]; I.V (tail vein) 1.92 mg/kg, n = 6)?
Answer: 0.00403 ± 0.0018 L/kg

Question: And the V ([1]; P.O 15 mg/kg, n = 6)?
Answer: 0.4017 ± 0.06959 L/kg

Question: What about the concentration at 2 h ([2]; Sprague-Dawley, rat, brain, 2 h after administration) of the same compound?
Answer: 501 ± 260 ng/g

Question: What about the “blood–brain barrier penetration” value ([2]; detected in brain tissue, 15 mg/kg) of the same compound?
Answer: could pass through the blood–brain barrier; also recorded: could penetrate the blood–brain barrier; also recorded: penetrating the BBB

Question: What about the “main tissues of distribution” value ([2]; heart, liver, spleen, lung, kidney, brain, 0.25-8 h) of the same compound?
Answer: mainly distributed in the liver and kidneys

Question: What about the “time of maximum excretion rate in feces” value ([3]; 15 mg/kg by gavage) of the same compound?
Answer: 8 to 12 h

Question: What about the “time of maximum excretion rate in urine” value ([3]; 15 mg/kg by gavage) of the same compound?
Answer: 4 to 12 h

Question: And the “excretion through urine, % of the dose” value ([3]; 15 mg/kg by gavage, within 24 h)?
Answer: 0.01 ± 0.00%

Question: And the “excretion through feces, % of the dose” value ([3]; 15 mg/kg by gavage, within 72 h)?
Answer: 31.14 ± 0.05%

Question: And the “average cumulative excretion through feces” value ([3]; oral 15 mg/kg, prototype drug)?
Answer: 0.94 ± 0.14 mg

Question: And the water solubility (Solubility in water)?
Answer: low water solubility; also recorded: almost insoluble in water

Question: What about the “stability in biological matrices” value [4] of the same compound?
Answer: stable

Question: What about the “pFe^3+” value [5] of the same compound?
Answer: 18.04

Question: And the IC50 (MAO-B)?
Answer: 0.0147 µM

Question: What about the “effect on behavioral and cognitive impairment (water maze)” value [6] of the same compound?
Answer: could significantly alleviate the behavioral and cognitive impairment of mice
